The values below come from patent US11926640B2, “Prodrugs of glutamine analogs” (THE JOHNS HOPKINS UNIVERSITY, priority 2015, dated 2024).

Series [1] can be described thus: in vitro metabolic stability in dog plasma. Conditions: 30 min and 60 min. In kind it is in vitro ADME. As to the method:
Percentage remaining was calculated in the following manner.

The nature of series [2]: in vitro metabolic stability in human plasma.
Series [3] in a line: in vitro metabolic stability in pig plasma. Conditions: 30 min and 60 min.
Series [4] is described as follows: in vitro metabolic stability in monkey plasma.
A short description of series [5]: plasma and CSF pharmacokinetics of DON in swine after i.v. infusion. In kind it is in vivo, Göttingen×Yucutan miniature swine. Conditions: 60 min post-administration. As to the method: Compound: Compound 47 was dissolved in a sterile saline containing 5% ethanol and 5% Tween 80 on the date of administration.
Swine: Swine studies were conducted under a protocol approved by the Johns Hopkins Animal Care and Use Committee. Adult, female Göttingen×Yucutan miniature swine (Massachusetts General Hospital, MA) were housed in Johns Hopkins University facilities accredited by the Association for Assessment and Accreditation of Laboratory Animal Care International in compliance with the Animal Welfare Act, Animal Welfare Regulations, and the Public Health Service Policy on the Humane Care and Use of Laboratory Animals. Animals were maintained on a 14-h light and 10-h dark schedule, provided ad libitum water and a commercial miniswine diet (Teklad, Madison, WI) with environmental enrichment (fruit/vegetables) twice daily.

A short description of series [6]: in vitro metabolic stability in mouse plasma.
Series [7] is described as follows: plasma and CSF pharmacokinetics of DON in monkeys after i.v. DON or 14b. In kind it is in vivo, pigtail macaques. Conditions: Monkey, FIG. 58B. As to the method:
Pharmacokinetic Studies in Non-human primates. All monkey studies were conducted according to protocol (#PR15M298) approved by the Animal Care and Use Committee at Johns Hopkins University. Two female pigtail monkeys (approximately 3.5 kg, non-drug naive) were adjacently housed in stainless steel cages on a social interaction rack (contains 4 cages, each 32.5″ wide×28″ deep×32″ high) maintaining temperature of 64-84° F., humidity of 30-70% with alternating 14-10 hour light/dark cycle as per the USDA Animal Welfare Act (9 CFR. Parts 1, 2, and 3). Food was provided daily in amounts appropriate for the size and age of the animals and RO purified water provided ad libitum through an in-cage lixit valve. Food enrichment was provided Monday through Friday. Prior to drug administration, macaques were sedated with ketamine given as an intramuscular injection prior to test article administration. […]
Bioanalysis of DON. […] The mean predicted relative standard deviation for back calculated concentrations of the standards and QC's for all analytes were within the range of 85 to 115%, except for the lowest concentration which was within the range of 80 to 120% with an overall accuracy and precision of 6.7% and 6.6%, respectively.
Pharmacokinetic Analysis. […] Area under the curve (AUC) was calculated by log-linear trapezoidal rule to the end of sample collection (AUClast). […]

Entries after “also recorded” stand apart in the source; their conditions may differ.

Take `CC(C)OC(=O)[C@H](CCC(=O)C=[N+]=[N-])NC(=O)OC(C)OC(=O)C(C)(C)C` (single isomer, unassigned) [Compound 14b, 1-Methylethyl 6-(1λ^5-diazynylidene)-N-({1-[(2,2-dimethylpropanoyl)oxy]ethoxy}carbonyl)-5-oxo-L-norleucinate]: the “stability in dog plasma (in words)” value in series [1] is “highly stable”. Moreover, in series [2] (30 min and 60 min), the “stability in human plasma (in words)” value is given as “highly stable”. The “PLASMA STABILITY Human” value in series [2] (prodrug remaining within the 60 min incubation time, human plasma) worked out at 91%. In series [3], the “stability in pig plasma (in words)” value is on record as “highly stable”. Besides, the “stability in monkey plasma (in words)” value in series [4] (30 min and 60 min) is “highly stable”. Also, in series [4] (prodrug remaining within the 60 min incubation time, monkey plasma), the “PLASMA STABILITY Monkey” value was 61%. In series [5], the “CSF delivery of DON (in words)” value is reported as “substantially higher amounts of DON to the CSF; also recorded: enhanced CSF delivery of DON” and the “CSF:plasma ratio of DON (in words)” value is given as “increased CSF-to-plasma ratios; also recorded: enhanced CSF:plasma ratio”. The “stability in mouse plasma (in words)” value in series [6] (30 min and 60 min) is “rapidly metabolized”. The “PLASMA STABILITY Mouse” value in series [6] (prodrug remaining within the 60 min incubation time, mouse plasma) is 0%. In series [7], the “CSF:plasma ratio of DON (in words)” value is “enhanced CSF:plasma ratio”.
